Test system: Plasmodium berghei
Assay: Luciferase/luciferin-expressing antifolate-resistant parasites were used to infect a culture of HepG2 cells that were pre-incubated with compounds. Infected hepatocytes emit light due to the luciferase reaction. Assay results are presented as the percent inhibition of light emission compared to control. […]
Type: functional
Conditions: sporozoite; for IC90: read-out: LUCIFERASE INFECTION ASSAY - IC90
[1] = read-out: LUCIFERASE INFECTION ASSAY - IC50

CCCCNC(=O)c1c(NC(=O)c2ccc(F)cc2F)nc2ccc(C)cn12
IC50 (FFLUC_HILL_SLOPE 10.6, FFLUC_R_SQUARED 0.36, HEPG2TOX_HILL_SLOPE 2.09, HEPG2TOX_R_SQUARED 0.949, PBLUC_HILL_SLOPE 14.8, PBLUC_R_SQUARED 0.468, read-out: LUCIFERASE INFECTION ASSAY - IC50): 2.6 µM | IC90: 3.01 µM

COC(=O)C(C(=O)CSc1nnc(-c2ccc(C(C)(C)C)cc2)n1C)=C1Nc2ccccc2N1
IC50 [1]: > 10 µM | IC90: > 10 µM

Cc1ccc(-n2c(C)cc(C(=O)COc3c(CO)cc(F)cc3CO)c2C)cc1C
IC50 (PBLUC_HILL_SLOPE 1.7, PBLUC_R_SQUARED 0.588, read-out: LUCIFERASE INFECTION ASSAY - IC50): 6.56 µM | IC90: > 10 µM

CC(=O)c1c(C)[n+]([O-])c2ccccc2[n+]1[O-] [MEQUINDOX]
IC50 (FFLUC_HILL_SLOPE 0.566, FFLUC_R_SQUARED 0.11, read-out: LUCIFERASE INFECTION ASSAY - IC50): > 15.1 µM | IC90: > 15.1 µM

Cc1nn2c(nc(N3CCCC3)c3ccccc32)c1C=C1C(=O)NC(=S)NC1=O
IC50 (HEPG2TOX_HILL_SLOPE 1.87, HEPG2TOX_R_SQUARED 0.941, PBLUC_HILL_SLOPE 2.44, PBLUC_R_SQUARED 0.519, read-out: LUCIFERASE INFECTION ASSAY - IC50): 2.16 µM | IC90: 5.31 µM

O=C(Nc1cccc(Cl)c1)Nc1ccc2nc(-c3ccc(F)c(Cl)c3)nn2c1
IC50 (HEPG2TOX_HILL_SLOPE 11.5, HEPG2TOX_R_SQUARED 0.414, PBLUC_HILL_SLOPE 109, PBLUC_R_SQUARED 0.131, read-out: LUCIFERASE INFECTION ASSAY - IC50): 7.23 µM | IC90: 7.37 µM

Cc1ccc(NC(=O)c2cc3c(s2)CCCCCC3)nc1
IC50 (PBLUC_HILL_SLOPE 0.925, PBLUC_R_SQUARED 0.636, read-out: LUCIFERASE INFECTION ASSAY - IC50): 0.551 µM | IC90: 5.93 µM

CNC(=O)c1ccc2n1CCN(C(=O)OCc1ccccc1)C2C (centres undefined)
IC50 (PBLUC_HILL_SLOPE 1.5, PBLUC_R_SQUARED 0.67, read-out: LUCIFERASE INFECTION ASSAY - IC50): 3.17 µM | IC90: > 10 µM

CC(C)n1ncc2cc(C(=O)Nc3nc(-c4cccnc4)cs3)cnc21
IC50 (HEPG2TOX_HILL_SLOPE 1.63, HEPG2TOX_R_SQUARED 0.918, read-out: LUCIFERASE INFECTION ASSAY - IC50): > 10 µM | IC90: > 10 µM

Cn1c(C=C2NC(c3cnccn3)=NO2)n[nH]c1=S
IC50 (PBLUC_HILL_SLOPE 0.666, PBLUC_R_SQUARED 0.147, read-out: LUCIFERASE INFECTION ASSAY - IC50): > 12 µM | IC90: > 12 µM

COc1ccc(-c2ccc3ncc(-c4ccc5c(c4)OCO5)n3n2)cc1OC
IC50 (HEPG2TOX_HILL_SLOPE 2.06, HEPG2TOX_R_SQUARED 0.96, PBLUC_HILL_SLOPE 2.96, PBLUC_R_SQUARED 0.768, read-out: LUCIFERASE INFECTION ASSAY - IC50): 0.524 µM | IC90: 1.1 µM

COCCNC(=O)CN(C)S(=O)(=O)c1ccc2c(c1)CCC(=O)N2
IC50 [1]: > 10 µM | IC90: > 10 µM

CC(C)c1ccccc1NC(=O)Nc1nc(C(N)C2CCCCC2)cs1 (centres undefined)
IC50 (HEPG2TOX_HILL_SLOPE 0.21, HEPG2TOX_R_SQUARED 0.263, PBLUC_HILL_SLOPE 31.8, PBLUC_R_SQUARED 0.686, read-out: LUCIFERASE INFECTION ASSAY - IC50): 7.47 µM | IC90: 8 µM

CC(C)n1cc(C(=O)c2ccccc2O)cc1-c1nc2ccccc2o1
IC50 [1]: > 10 µM | IC90: > 10 µM

COc1ccc(-c2cnc3ccc(NCc4ccccn4)nn23)cc1OC
IC50 (HEPG2TOX_HILL_SLOPE 0.427, HEPG2TOX_R_SQUARED 0.871, PBLUC_HILL_SLOPE 2.47, PBLUC_R_SQUARED 0.694, read-out: LUCIFERASE INFECTION ASSAY - IC50): 2.41 µM | IC90: 5.88 µM

CN(C)C(=O)C1CCCN1c1ccc(C(=O)c2ccccc2)cc1[N+](=O)[O-] (centres undefined)
IC50 (HEPG2TOX_HILL_SLOPE 1.22, HEPG2TOX_R_SQUARED 0.897, PBLUC_HILL_SLOPE 2.78, PBLUC_R_SQUARED 0.507, read-out: LUCIFERASE INFECTION ASSAY - IC50): 6.2 µM | IC90: > 10 µM

C=CCn1c(C)cc(C(=O)COC(=O)C(O)(c2ccccc2)c2ccccc2)c1C
IC50 (PBLUC_HILL_SLOPE 1.92, PBLUC_R_SQUARED 0.565, read-out: LUCIFERASE INFECTION ASSAY - IC50): 1.84 µM | IC90: 5.78 µM

COc1ccc(C)cc1C(C)NC(=O)c1cc2ccsc2[nH]1 (centres undefined)
IC50 [1]: > 10 µM | IC90: > 10 µM

Cc1cc2c(cc1C)C(NCCc1ccccc1)=NC(C)(C)C2
IC50 (HEPG2TOX_HILL_SLOPE 5.51, HEPG2TOX_R_SQUARED 0.604, PBLUC_HILL_SLOPE 9.09, PBLUC_R_SQUARED 0.396, read-out: LUCIFERASE INFECTION ASSAY - IC50): 4 µM | IC90: 5.1 µM

O=C(NC1CCN(c2ccc(S(=O)(=O)C(F)(F)F)cc2)CC1)C1CC1
IC50 (HEPG2TOX_HILL_SLOPE 1.52, HEPG2TOX_R_SQUARED 0.775, PBLUC_HILL_SLOPE 1.87, PBLUC_R_SQUARED 0.699, read-out: LUCIFERASE INFECTION ASSAY - IC50): 0.799 µM | IC90: 2.59 µM

NS(=O)(=O)c1ccc(CNC(=O)c2ccc(Cn3cccn3)cc2)s1
IC50 (HEPG2TOX_HILL_SLOPE 0.983, HEPG2TOX_R_SQUARED 0.0206, read-out: LUCIFERASE INFECTION ASSAY - IC50): > 10 µM | IC90: > 10 µM

Cc1cccc(N2CCN(C(=O)c3cc4ccccc4o3)CC2C)c1 (centres undefined)
IC50 (PBLUC_HILL_SLOPE 1.92, PBLUC_R_SQUARED 0.443, read-out: LUCIFERASE INFECTION ASSAY - IC50): 4.83 µM | IC90: > 10 µM

N=C1C(=S)N(c2ccc(Cl)c(Cl)c2)C(=O)N1c1ccc(Cl)c(Cl)c1
IC50 [1]: > 7.87 µM | IC90: > 7.87 µM

Cc1ccc(/C=C2\CCc3c2nc2ccccc2c3C(=O)OCC#N)cc1
IC50 (HEPG2TOX_HILL_SLOPE 0.309, HEPG2TOX_R_SQUARED 0.18, PBLUC_HILL_SLOPE 16.5, PBLUC_R_SQUARED 0.242, read-out: LUCIFERASE INFECTION ASSAY - IC50): 0.0129 µM | IC90: 0.0147 µM

O=C(Nc1ccc(OC(F)(F)F)cc1)Nc1cc(-c2ccco2)n[nH]1
IC50 (PBLUC_HILL_SLOPE 2.58, PBLUC_R_SQUARED 0.157, read-out: LUCIFERASE INFECTION ASSAY - IC50): 7.52 µM | IC90: > 9.37 µM

Cc1cc(C)cc(-n2c(SCc3nc4ccccc4n3C(F)F)nc3ccccc3c2=O)c1
IC50 [1]: > 10 µM | IC90: > 10 µM

Cc1c(C(=O)N2CCCCC2)sc2nc(-c3ccc(Cl)cc3)nn12
IC50 (FFLUC_HILL_SLOPE 28.1, FFLUC_R_SQUARED 0.294, PBLUC_HILL_SLOPE 1.44, PBLUC_R_SQUARED 0.531, read-out: LUCIFERASE INFECTION ASSAY - IC50): 1.82 µM | IC90: 8.36 µM

CC(=O)c1cccc(-c2cnc3ccc(-c4cccnc4)nn23)c1
IC50 (HEPG2TOX_HILL_SLOPE 1.81, HEPG2TOX_R_SQUARED 0.991, PBLUC_HILL_SLOPE 1.06, PBLUC_R_SQUARED 0.743, read-out: LUCIFERASE INFECTION ASSAY - IC50): 0.606 µM | IC90: 4.84 µM

O=C(Nc1ccccc1)ON=C1CC2CCCC(C1)N2Cc1ccccc1
IC50 (PBLUC_HILL_SLOPE 1.59, PBLUC_R_SQUARED 0.239, read-out: LUCIFERASE INFECTION ASSAY - IC50): > 9.08 µM | IC90: > 9.08 µM

O=C(c1cccs1)N1CCN(c2cc(C(F)(F)F)nc3ccccc23)CC1
IC50 (PBLUC_HILL_SLOPE 13.8, PBLUC_R_SQUARED 0.566, read-out: LUCIFERASE INFECTION ASSAY - IC50): 2.84 µM | IC90: 3.33 µM

CC(=O)c1ccc(C#Cc2ccccc2)s1
IC50 [1]: > 14.6 µM | IC90: > 14.6 µM

COc1ccccc1-c1nc2ccc(NC(=O)Nc3ccc(OC(F)(F)F)cc3)cn2n1
IC50 (PBLUC_HILL_SLOPE 3.5, PBLUC_R_SQUARED 0.389, read-out: LUCIFERASE INFECTION ASSAY - IC50): 7.37 µM | IC90: > 10 µM

CCOc1ccc(Oc2ccc(S(=O)(=O)NC(C)c3ccncc3)cc2)cc1 (centres undefined)
IC50 [1]: 0.559 µM | IC90: 4.85 µM

CC(Oc1ccc(Cl)cc1Cl)C(=O)Nc1nc(-c2c[nH]c(C(N)=O)c2)cs1 (centres undefined)
IC50 (PBLUC_HILL_SLOPE 4.28, PBLUC_R_SQUARED 0.703, read-out: LUCIFERASE INFECTION ASSAY - IC50): 1.79 µM | IC90: 2.99 µM

Cc1cc(=O)nc(N/N=C2/CCc3ccccc3C2)[nH]1
IC50 [1]: 5.6 µM | IC90: > 10 µM

CSCc1cc(N2CCOCC2)nc(SCc2ccc(Cl)cc2Cl)n1
IC50 [1]: > 7.93 µM | IC90: > 7.93 µM

CCc1cccc2c(/C=C(\C#N)C(=O)C(C)(C)C)c[nH]c12
IC50 (PBLUC_HILL_SLOPE 0.872, PBLUC_R_SQUARED 0.606, read-out: LUCIFERASE INFECTION ASSAY - IC50): 6.24 µM | IC90: > 10 µM

Cc1ccc2c(c1)CCCN2CC(=O)Nc1sccc1C(N)=O
IC50 [1]: > 10 µM | IC90: > 10 µM

CCn1c(SCCOc2ccccc2Cl)nnc1-c1cc(-c2ccccc2)nc2ccccc12
IC50 (PBLUC_HILL_SLOPE 1.65, PBLUC_R_SQUARED 0.274, read-out: LUCIFERASE INFECTION ASSAY - IC50): > 10 µM | IC90: > 10 µM

CCOc1ccc(-n2c(C)cc(/C=N/Nc3nc(C)cc(O)n3)c2C)cc1
IC50 (PBLUC_HILL_SLOPE 14.4, PBLUC_R_SQUARED 0.318, read-out: LUCIFERASE INFECTION ASSAY - IC50): 9.96 µM | IC90: > 10 µM

CCC1c2ccsc2CCN1Cc1cc(=O)n2cc(Cl)ccc2n1 (centres undefined)
IC50 [1]: > 10 µM | IC90: > 10 µM

CC(C)c1ccc(Nc2nccc3nc(-c4cccc(C(C)C)c4)[nH]c23)cc1
IC50 (HEPG2TOX_HILL_SLOPE 1.74, HEPG2TOX_R_SQUARED 0.684, PBLUC_HILL_SLOPE 1.1, PBLUC_R_SQUARED 0.805, read-out: LUCIFERASE INFECTION ASSAY - IC50): 2.41 µM | IC90: > 10 µM

Reference: ChEMBL document CHEMBL4483862, “Open-source discovery of chemical leads for next-generation chemoprotective antimalarials” (2018)
